Results reported in patent US20110129917A1, “CELL ISOLATION METHOD” (priority 2007, published 2011).

Test system: microorganisms in soil
Assay: effect of cell enlargers upon microorganisms in rice paddy soil, observed under a fluorescent microscope after CFDA-AM staining
Type: cell-based
Conditions: three cell enlargers added together: nalidixic acid 80 μg/g of soil, pipemidic acid 40 μg/g, piromidic acid 40 μg/g; anaerobic, 30° C., 24 hours; comparison without enlargers showed only round or oval cells
Procedure: As a laboratory model of rice paddy soil where denitrification is active, a 10 mL vial bottle was filled with slightly less than 10 mL of soil (rice paddy soil from Tanashi Farm of the University of Tokyo), a selective substrate of denitrificans (sodium succinate, approximately 5 g/L) and sodium nitrate (approximately 5 g/L) and the gas phase was completely substituted with argon-acetylene. Culture was then carried out anaerobically at 30° C. […] A fluorescent dye CFDA-AM (final concentration 50 μM) was added to the cultured product and the product was observed under a fluorescent microscope (excited in blue, irradiated with blue light) (FIG. 3(b)). In combination, as a comparative example, the fluorescent dye was added and observation was carried out under a microscope with no cell enlargers added (FIG. 3(a)).

Q: How did the “effect of cell enlargers upon microorganisms in soil (cell shape and size under the microscope)” value turn out when CCn1cc(C(=O)O)c(=O)c2cnc(N3CCNCC3)nc21 [pipemidic acid] was run?
A: The value was “elongated and larger cells were also observable”.

Q: With CCn1cc(C(=O)O)c(=O)c2cnc(N3CCCC3)nc21 [piromidic acid] as the compound, how does the “effect of cell enlargers upon microorganisms in soil (cell shape and size under the microscope)” value read?
A: Its value is “elongated and larger cells were also observable”.
